By IC50 is commonly meant the midpoint of a concentration-inhibition curve. A higher IC50 goes with weaker potency in that assay.

The assay concerns the target T1, thrombin (THR, FIIα) (Homo sapiens, UniProt P00734).
T1 construct: gene F2; human recombinant THR
Briefly: chromogenic substrate S-2238 assay; affinity ultrafiltration LC-MS hit. Format: biochemical.

The compound `CC(=O)OC(CCc1ccc(O)cc1)CC(O)CCc1ccc(O)cc1` (stereo not drawn) [C8, 3-acetate-1,7-bis(4-hydroxyphenyl)-3,5-heptanediol] had an IC50 of 9.92 µM.
In turn, `CC(=O)OC(CCc1ccc(O)cc1)CC(CCc1ccc(O)c(O)c1)OC(C)=O` (stereo not drawn) [C11, 4-[3,5-bis(acetyloxy)-7-(4-hydroxyphenyl)heptyl]-1,2-benzenediol] returned an IC50 of 654 µM.
In the case of `CC(=O)OC(CCc1ccc(O)c(O)c1)CC(CCc1ccc(O)c(O)c1)OC(C)=O` (stereo not drawn) [C7, 4,4′-[3,5-bis(acetyloxy)-1,7-heptanediyl]bis-1,2-benzenediol] it was 358 µM.

The record behind these values is publication PMC8703108, “Identifying of Anti-Thrombin Active Components From Curcumae Rhizoma by Affinity-Ultrafiltration Coupled With UPLC-Q-Exactive Orbitrap/MS” (Frontiers in Pharmacology, 2021).
